Peptide text beside a SMILES is read from it. * marks the point of attachment. Cbz = O=C(OCc1ccccc1)*
Tests used:
[1] = system: SIVA2; experiment: SIVA2 level/stabilization in transfected HEK-293T and EcR-293 cells, western blotting; type: cell-based, human
Experimental: (A) Expression of SIVA1 and SIVA2 in various cell lines. For each cell line, cellular protein (30 μg) was resolved by 13.5% SDS-PAGE and probed with anti-SIVA antibody. The two lanes at the right show SIVA1 and SIVA2 overexpressed in HEK-293T cells (for each protein, 2 μg cDNA/well in 6-well plates). (B) Several SIVA isoforms are expressed in PBMCs. […] (C) Ligand activation increases the amount of SIVA2 in resting PBMCs. Cells (2×10^6) were treated with the indicated ligands for 8 h and the cell lysates were analyzed by western blotting. […] The cells were stimulated with PHA (1 μg/ml) for 48 h, washed twice with phosphate-buffered saline, and incubated for an additional period of 18 h without PHA. Ligands and genotoxic agents (camptothecin (CPT) 10 μM and cisplatin (CIS) 50 μM) were then applied for 18 h. MG132 was applied for the last 4 h of treatment. Except where otherwise indicated, MG132 was applied in this study at a concentration of […] denotes a non-specific band serving as loading control. […] PBMCs were activated as in FIG. 1d. Ligands were applied to the indicated cell types for 18 h. Semi-quantitative RT-PCR for SIVA message was performed as described in Methods. GAPDH was used as a basis for normalization. […] SIVA2 or SIVA1 plasmids (0.5 μg) were transfected, and 18 h later ligands were applied for 8 h. Total-cell lysates were analyzed by western blotting using anti-SIVA antibody. TNF-induced SIVA2 stabilization was assessed in EcR-293-CD27 cells. (G) Inducibly expressed SIVA2 is stabilized by CD70. EcR-293-CD27-SIVA2 cells (see Methods) were treated with ponasterone and CD70 as indicated. Total-cell lysates were analyzed by western blotting using LDH as the loading control (bottom panel). […] HEK-293T cells were transfected with FLAG-SIVA2 and analyzed 24 h after transfection. MG132 was applied for the last 4 h of treatment. TCL, total cell lysate. (I) Differential effects of genotoxic agents on the expression of SIVA1 and SIVA2. Top: HepG2 cells were treated with CPT for 18 h. When indicated, they were transfected with pSUPER SIVA 30 h prior to CPT application. Cells lysates were analyzed by western blotting using anti-SIVA antibody. Middle: HepG2 cells were exposed to UVC (20 J/m^2) and levels of SIVA proteins were determined after 18 h of treatment. […] Bottom: HEK-293T cells were transfected with 0.5 μg of FLAG-SIVA2. CPT and CD40L were applied, 8 h after transfection, for a further 18 h.
HEK-293T cells cotransfected with NIK and SIVA2 were metabolically labeled with azido-GlcNAc, in-vitro biotinylated, and immunoprecipitated. The biotin-labeled GlcNAc moieties in SIVA2 were detected with streptavidin horseradish peroxidase (HRP). (B) SIVA binds to wheatgerm-agglutinin. The plasmids for SIVA2, alone or together with NIK or TRAF2, were transiently expressed in HEK-293T cells. Lactacystin was applied for the last 6 h of the 24-h treatment period. Lysates were analyzed for expression (right panel) and WGA binding (left panel) of SIVA2. N-acetyl-D-glucosamine (0.5 M) was added as a competitor for WGA binding. […] FLAG-SIVA2 was cotransfected with myc-NIK into HEK-293T cells and immunoprecipitated with anti-FLAG-M2 beads. The immunoprecipitated beads were boiled with 1% SDS and the eluted proteins were treated with […] hexosaminidase as described (Whelan, 2006). The samples were collected after treatment for 4, 8, and 20 h, diluted with WGA binding buffer, and lectin binding was assayed as described in Methods. Immunoprecipitation of the protein with anti-FLAG-M2 beads after treatment for 8 h as described above, followed by western analysis, confirmed that despite having lost the ability to bind to WGA the protein remained intact. ‘Sup’, SIVA protein remaining unbound after the reaction. […] The plasmids were transiently expressed in HEK-293T cells. DON (50 μM) was applied for the last 16 h and MG132 for the last 6 h of the 28-h treatment period. […] The experiment was performed as in (D). […]

[2] = system: SIVA2; experiment: SIVA2 protein level in PBMCs, western blotting with anti-SIVA antibody; type: cell-based, human; conditions: for SIVA2 levels in activated PBMCs: PHA-activated PBMCs, CPT 10 μM, CIS 50 μM for 18 h, MG132 last 4 h; for SIVA2 expression: resting PBMCs, ligands for 8 h
Experimental: For each cell line, cellular protein (30 μg) was resolved by 13.5% SDS-PAGE and probed with anti-SIVA antibody. The two lanes at the right show SIVA1 and SIVA2 overexpressed in HEK-293T cells (for each protein, 2 μg cDNA/well in 6-well plates). […] Cells (2×10^6) were treated with the indicated ligands for 8 h and the cell lysates were analyzed by western blotting. […] The cells were stimulated with PHA (1 μg/ml) for 48 h, washed twice with phosphate-buffered saline, and incubated for an additional period of 18 h without PHA. Ligands and genotoxic agents (camptothecin (CPT) 10 μM and cisplatin (CIS) 50 μM) were then applied for 18 h. MG132 was applied for the last 4 h of treatment. Except where otherwise indicated, MG132 was applied in this study at a concentration of […] denotes a non-specific band serving as loading control. […] PBMCs were activated as in FIG. 1d. Ligands were applied to the indicated cell types for 18 h. Semi-quantitative RT-PCR for SIVA message was performed as described in Methods. GAPDH was used as a basis for normalization. […] SIVA2 or SIVA1 plasmids (0.5 μg) were transfected, and 18 h later ligands were applied for 8 h. Total-cell lysates were analyzed by western blotting using anti-SIVA antibody. […] EcR-293-CD27-SIVA2 cells (see Methods) were treated with ponasterone and CD70 as indicated. Total-cell lysates were analyzed by western blotting using LDH as the loading control (bottom panel). […] HEK-293T cells were transfected with FLAG-SIVA2 and analyzed 24 h after transfection. MG132 was applied for the last 4 h of treatment. TCL, total cell lysate. […] Top: HepG2 cells were treated with CPT for 18 h. When indicated, they were transfected with pSUPER SIVA 30 h prior to CPT application. Cells lysates were analyzed by western blotting using anti-SIVA antibody. Middle: HepG2 cells were exposed to UVC (20 J/m^2) and levels of SIVA proteins were determined after 18 h of treatment. […] Bottom: HEK-293T cells were transfected with 0.5 μg of FLAG-SIVA2. CPT and CD40L were applied, 8 h after transfection, for a further 18 h.
Cells. Peripheral-blood mononuclear cells (PBMCs) were isolated from buffy-coat samples and cultured as described (Ramakrishnan et al., 2004). Ecdysone-inducible EcR-293-CD27 cell lines expressing SIVA2 (EcR-293-CD27-SIVA2) or SIVA1 (EcR-293-CD27-SIVA1) and EcR-293-CD40 were generated by transfection using the calcium phosphate method according to the instructions of the manufacturer (Invitrogen). All adherent cells—HEK-293T, EcR-293 (Invitrogen), HeLa, HeLa T-REx (Invitrogen), and HepG2—were cultured in Dulbecco's modified Eagle's medium. Both culture media were supplemented with 10% fetal calf serum, 100 U/ml pencillin, and 100 μg/ml streptomycin. The human lymphoblastoid lines Ramos (Human Burkitt's lymphoma cell line) and BJAB (B-lymphoblastoma cell line) were cultured in RPMI medium. Ecdysone-inducible EcR293-CD27 and EcR293-CD40 cell lines were generated by their stable transfection with cDNAs for human CD27 and CD40, respectively. EcR293-CD27 cell lines expressing SIVA2 (EcR293-CD27-SIVA2) or SIVA1 (EcR293-CD27-SIVA1) were generated by transfection using the calcium phosphate method, and myc NIK and myc NIK (K670A) were later introduced into these cells by retroviral transduction and selection with 1 μg/ml puromycin. Ramos cells constitutively expressing myc-NIK were generated by retroviral transduction, followed by selection with 1 μg/ml puromycin. […]

[3] = biological target: T1, cIAP1 (human, UniProt Q13490 1-618); experiment: immunoprecipitation of endogenous cIAP1 from transfected HEK293T cells (FIG. 6D right panel)
T1 construct: Also used for general sentences that say only 'cIAP1'; also called endogenous cIAP1
Experimental: Left panel: Binding in vitro. […] Right and bottom panels depict binding in transfected HEK293T cells. […] After 28 h the endogenous cIAP1 was immunoprecipitated. MG132 was applied for the last 6 h of incubation. […] After 28 h the transfected proteins were immunoprecipitated and probed for co-precipitated endogenous cIAP1. MG132 was applied for the last 6 h of incubation. […] N/A, not analyzed. The asterisk denotes assessment in the yeast two-hybrid test. […] The indicated plasmids were co-transfected into HEK293T cells.

[4] = system: SIVA1; experiment: SIVA1 protein level in PBMCs, western blotting with anti-SIVA antibody; type: cell-based, human; conditions: resting PBMCs, ligands for 8 h
Experimental: For each cell line, cellular protein (30 μg) was resolved by 13.5% SDS-PAGE and probed with anti-SIVA antibody. The two lanes at the right show SIVA1 and SIVA2 overexpressed in HEK-293T cells (for each protein, 2 μg cDNA/well in 6-well plates). […] Cells (2×10^6) were treated with the indicated ligands for 8 h and the cell lysates were analyzed by western blotting. […] The cells were stimulated with PHA (1 μg/ml) for 48 h, washed twice with phosphate-buffered saline, and incubated for an additional period of 18 h without PHA. Ligands and genotoxic agents (camptothecin (CPT) 10 μM and cisplatin (CIS) 50 μM) were then applied for 18 h. MG132 was applied for the last 4 h of treatment. Except where otherwise indicated, MG132 was applied in this study at a concentration of […] denotes a non-specific band serving as loading control. […] Semi-quantitative RT-PCR for SIVA message was performed as described in Methods. […] Total-cell lysates were analyzed by western blotting using anti-SIVA antibody. […] Total-cell lysates were analyzed by western blotting using LDH as the loading control (bottom panel). […] HEK-293T cells were transfected with FLAG-SIVA2 and analyzed 24 h after transfection. […] Cells lysates were analyzed by western blotting using anti-SIVA antibody. Middle: HepG2 cells were exposed to UVC (20 J/m^2) and levels of SIVA proteins were determined after 18 h of treatment. […]

[5] = HEK-293T, FLAG-SIVA2, MG132 last 4 h

T1 sequence (Q13490 whole entry): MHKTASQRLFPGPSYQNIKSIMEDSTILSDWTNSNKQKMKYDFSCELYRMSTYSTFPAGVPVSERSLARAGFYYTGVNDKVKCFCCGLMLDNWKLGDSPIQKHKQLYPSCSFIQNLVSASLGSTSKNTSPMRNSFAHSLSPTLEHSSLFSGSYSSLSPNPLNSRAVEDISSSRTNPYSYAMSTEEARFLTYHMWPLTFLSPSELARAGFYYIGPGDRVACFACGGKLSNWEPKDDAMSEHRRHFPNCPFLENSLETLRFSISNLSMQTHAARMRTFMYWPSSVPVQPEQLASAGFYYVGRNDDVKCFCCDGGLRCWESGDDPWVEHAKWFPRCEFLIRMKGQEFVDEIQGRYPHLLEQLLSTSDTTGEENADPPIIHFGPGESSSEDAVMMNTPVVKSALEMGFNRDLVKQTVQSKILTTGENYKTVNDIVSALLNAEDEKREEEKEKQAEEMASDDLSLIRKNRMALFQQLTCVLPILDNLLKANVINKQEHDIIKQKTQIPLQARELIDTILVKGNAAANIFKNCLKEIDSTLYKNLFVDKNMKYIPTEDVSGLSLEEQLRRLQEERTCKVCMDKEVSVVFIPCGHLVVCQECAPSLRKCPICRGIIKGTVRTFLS

CC(=O)N[C@H]1[C@@H](OCc2ccccc2)O[C@H](CO)[C@H](O)[C@@H]1O [BADGP, benzyl-α-GalNAc]
NIK-induced SIVA2 stabilization ([1]; HEK-293T, NIK + SIVA2, 0.7, 1.4, or 2.0 mM BADGP last 16 h of 28 h): blocks NIK-induced SIVA2 stabilization

N.N.[Cl][Pt][Cl] [CIS, cisplatin]
SIVA2 levels in activated PBMCs [2]: but not genotoxic stress, increase SIVA2 levels

CC[C@@]1(O)C(=O)OCc2c1cc1n(c2=O)Cc2cc3ccccc3nc2-1 [CPT, camptothecin]
cytokine (CD40)-induced stabilization/enhancement of SIVA2 under genotoxic agent ([1]; HEK-293T, FLAG-SIVA2, CPT and CD40L for 18 h): decreased | SIVA2 levels in activated PBMCs [2]: but not genotoxic stress, increase SIVA2 levels

[N-]=[N+]=CC(=O)CC[C@H](N)C(=O)O [DON, 6-diazo-5-oxo-L-norleucine]
MG132-induced SIVA2 stabilization ([1]; HEK-293T, DON 50 μM last 16 h, MG132 last 6 h): does not affect MG132-induced stabilization | TRAF2-induced SIVA2 stabilization ([1]; HEK-293T, DON 50 μM last 16 h of 28 h): interferes with TRAF2-induced SIVA2 stabilization | NIK-mediated stabilization of wild-type SIVA2 ([1]; HEK-293T, DON as in FIG. 3D): blocks the NIK-mediated stabilization of wild-type SIVA2 | residual stabilization by NIK of the SIVA2 6SA mutant ([1]; HEK-293T, DON as in FIG. 3D): has no effect on the residual stabilization by NIK of the SIVA2 6SA mutant

CC(C)C[C@@H](C=O)NC(=O)[C@H](CC(C)C)NC(=O)[C@H](CC(C)C)NC(=O)OCc1ccccc1 [MG132] (Cbz-Leu-Leu-Leu-aldehyde)
accumulation of polyubiquitinated SIVA2 [1, 5]: enhances accumulation of the polyubiquitinated protein | stabilization of transiently expressed SIVA2 [1, 5]: stabilizes transiently expressed SIVA2 | stabilization of SIVA2 (1-58) (SIVA N-terminus) ([1]; HEK-293T, MG132 25 uM last 6 h of 24 h): stabilizes SIVA N-terminus | stabilization of SIVA2 serine mutants ([1]; HEK-293T, MG132 added 18 h after transfection for 6 h): stabilize the SIVA2 serine mutants that cannot be stabilized by NIK | SIVA2 levels in activated PBMCs [2]: increase SIVA2 levels

B1: HIS-SIVA2 (1-58) (other, not shown: small tags and cut ends)
chain: MPKRSCPFADVAPLQLKVRVSQRELSRGVCAERYSQEVFDPSGVASIACSSCVRAVDG
notes: also called SIVA N-terminus
binding result [3]: binds

B2: CD70: CD27 ligand; mCD70 produced by large-scale transfection of HEK-293T cells (protein, UniProt O55237 1-195, looked up)
CD70 antigen: MPEEGRPCPWVRWSGTAFQRQWPWLLLVVFITVFCCWFHCSGLLSKQQQRLLEHPEPHTAELQLNLTVPRKDPTLRWGAGPALGRSFTHGPELEEGHLRIHQDGLYRLHIQVTLANCSSPGSTLQHRATLAVGICSPAAHGISLLRGRFGQDCTVALQRLTYLVHGDVLCTNLTLPLLPSRNADETFFGVQWICP
SIVA1 expression [4]: did not affect | stabilization of inducibly expressed SIVA2 ([1]; EcR-293-CD27-SIVA2 cells, ponasterone): stabilized | SIVA2 expression [2]: extensive enhancement

B3: CD154: CD40 ligand; hCD40L produced by large-scale transfection of HEK-293T cells (protein, UniProt P29965 113-261, looked up)
CD40 ligand, soluble form: MQKGDQNPQIAAHVISEASSKTTSVLQWAEKGYYTMSNNLVTLENGKQLTVKRQGLYYIYAQVTFCSNREASSQAPFIASLCLKSPGRFERILLRAANTHSSAKPCGQQSIHLGGVFELQPGASVFVNVTDPSQVSHGTGFTSFGLLKL
SIVA1 expression [4]: did not affect | SIVA2 expression [2]: extensive enhancement

B4: HIS-SIVA2 (other, not shown: small tags and cut ends)
chain: MPKRSCPFADVAPLQLKVRVSQRELSRGVCAERYSQEVFDPSGVASIACSSCVRAVDGKAVCGQCERALCGQCVRTCWGCGSVACTLCGLVDCSDMYEKVLCTSCAMFET
notes: Expressed by transfection in HEK293T cells
binding result [3]: binds

From patent publication US20110293593A1, “SIVA 2 STABILIZATION” (YEDA RESEARCH AND DEVELOPMENT CO., LTD., priority 2008, published 2011)
